# Experimental data from a melting point compilation (Tetko et al.; mined from patent text by program, amines drawn as free bases though some values may be those of a salt).
row,SMILES,melting point [°C]
1,Cc1nc[nH]c1CSCCN=C(NC#N)NCCCCCCCCN,122 to 124
2,CCCCC[C@H]1CC[C@H](CCC2CCC(c3ccc(O)cc3)(c3ccc(O)cc3)CC2)CC1,203 to 204
3,O=C(Nc1ccc(O)c(O)c1)C12CC3CC(CC(C3)C1)C2,196 to 199
4,COc1c(C2CCN(CCCCOc3ccc(-c4ccc(C#N)cc4)cc3)CC2)ccc2ccccc12,142
5,COc1ccc2c3c([nH]c2c1)C(=S)C(CC1CCN(Cc2ccccc2)CC1)C3 (stereo not drawn),180 to 181
6,N#Cc1cc(F)c(NN=CC(=O)C(F)(F)F)nc1Cl,174 to 176
7,CC(C)N1C(=O)C2Cc3nc[nH]c3CN2C1=O (stereo not drawn),149 to 157
8,O=C(O)C1CCCCC1C(=O)CCSSCCC(=O)C1CCCCC1C(=O)O (stereo not drawn),167 to 170
9,CCCc1c(C(=O)CC(C)OC)c2ccc(C(N)=O)cc2n1Cc1cc2c(cc1Cl)OCO2 (stereo not drawn),190 to 192
10,Nc1cc(S(=O)(=O)c2ccccc2)ccc1Cl,105 to 107
11,COC(=O)CC(C)NC(=O)c1ccc(N2CCN(c3ccncc3)CC2)cc1 (stereo not drawn),130 to 132
12,CCCCCCCCCCCCOC(CCCCCCCCCCCC)COCC(O)COc1ccc(N2CCOCC2)cc1 (stereo not drawn),49 to 52
13,CCCCCCC(C)(C)c1cc(OCc2ccccc2)c(C2=C(C(C)(C)C(N)=O)CCC(C)C2)c(OCc2ccccc2)c1 (stereo not drawn),113 to 114
14,CCCN1CCO[C@@H]2c3cc4c(=O)n(OC)ccc4cc3CC[C@H]21,142 to 145
15,COC(=O)N[C@@H](CSc1ccccc1)[C@H](O)CCl,113 to 114
16,CC(C)(C)[Si](C)(C)O[C@@H]1C[C@]2(O)C[C@@H](OC2=O)[C@@H]1O,90 to 94
17,COc1cc2c(cc1OC)CC(=S)N(CCCN(C)C1CCc3cc(OC)c(OC)cc3C1)CC2 (stereo not drawn),70 to 75

row,SMILES,melting point [°C]
1,C=C(C)c1csc(SC)c1,71 to 73
2,Nc1ccn(C[C@@H]2O[C@H](CO)[C@@H](O)[C@@H]2O)c(=O)n1,230 to 232
3,OC/C=C/c1ccc(Cc2cccnc2)cc1,81 to 82
4,CC1(C)C=Cc2c(c3ccccc3[nH]c2=O)O1,174 to 177
5,O=C1c2ccccc2CN1CCCSc1ccncc1,73 to 74.5
6,CC(=O)OCC1OC(n2cc(F)c(=O)[nH]c2=O)CC1OC(C)=O (stereo not drawn),151
7,CC(C)(C)c1cc(-c2nnc(N)o2)cc(C(C)(C)C)c1O,244 to 245
8,CC(C)C1Oc2ccccc2NC1=O (stereo not drawn),118 to 119
9,CCC(O)c1cc([N+](=O)[O-])cc(Br)c1Cl (stereo not drawn),110 to 113
10,NC(=O)CCC/C=C\[C@@H]1C[C@@H](NS(=O)(=O)c2ccc(Cl)cc2)CN1S(=O)(=O)c1ccc(Cl)cc1,142 to 143
11,Cc1ccc([N+](=O)[O-])c(C#N)c1C,107 to 108
12,O=c1oc2cc(Oc3nnnn3-c3ccccc3)ccc2c2c1CN(Cc1ccccc1)CC2,165 to 166
13,CCNc1nc(NCC)nc(NCC)n1,74
14,CS(=O)(=O)c1ccc(-c2cnn(-c3ccc(Cl)s3)c(=O)c2-c2ccc(F)cc2)cc1,190 to 192
15,CCCCCCCC[C@H]1C[C@H]1CCCCCCCC(=O)NC(Cc1ccccc1)Cc1ccccc1 (relative stereo),40 to 45
16,CC(C)(C)C(O)C(CSc1ccc(Cl)cc1)n1cncn1 (stereo not drawn),84
17,CC(Cn1nnc2ccccc21)(NC(=O)OC1C2CC3CC(C2)CC1C3)C(=O)NCCc1ccccc1 (stereo not drawn),180 to 185

# Further lines, results first:
row,melting point [°C],SMILES
1,219 to 221,O=C(O)Cc1ccc(N2C(=O)C3CCCCC3C2=O)cc1 (stereo not drawn)
2,114 to 116,CC(=O)N1CCC2(CC1)CC(=O)c1c(O)cccc1O2
3,190 to 191,CC(=O)Nc1cccc(NC(C)=O)c1
4,80,COC(C)(CC(=O)Nc1ccccc1)OC
5,204 to 206,COc1ccc(CNc2ncc(Cl)cc2C(=O)O)cc1
6,150 to 152,Cc1ccccc1C(=O)c1[nH]c2cc(Cl)ccc2c1CC(=O)O
7,264 to 267,Cc1nc2c3c(c(C(N)=O)cc2n1C)CCC(c1ccccc1)O3 (stereo not drawn)
8,97 to 98,O=C(O)c1ccc(CCCc2ccccc2CCc2ccccc2)cc1
9,152 to 155,COc1cc(Cc2cnc(N)nc2N)cc(C#Cc2ccc3ccccc3c2)c1OC
10,235 to 238,CCc1cccc(C)c1CNc1cc(C(=O)O)nc2c1nc(C)n2C
11,139,CCOC(=O)C(C(=O)OCC)=C1CN(C)C(=O)c2ccccc2N1
12,138 to 140,CC(C)(C)OC(=O)N1CC(CCl)c2c1ccc1ccc(C#N)cc21 (stereo not drawn)
13,239 to 243,C=C1CN(c2c(F)cc3c(=O)c(C(=O)O)cn(C4CC4)c3c2F)CC1NC (stereo not drawn)
14,99 to 100,COc1cc(OC)nc(Cc2ccccc2NS(=O)(=O)C(F)(F)F)n1
15,27 to 30,CCCCCCCNc1cccc(O)c1
16,69 to 71,CC(C)c1nc(COC2=CCCCC2)n(C)c1Sc1cc(Cl)cc(Cl)c1
17,222 to 224,Cc1c(Nc2ncc(Br)cc2C(=O)O)cccc1C(F)(F)F
18,115 to 116,Cc1ccc(S(=O)(=O)NCc2ccccc2)cc1
19,164 to 166,CNC(=O)Nc1cc(OC)ccc1Br
20,157 to 158,COc1ccc(C(CC(=O)c2ccccc2)C(=O)O)cc1 (stereo not drawn)

row,melting point [°C],SMILES
1,101,CC(=CC(C)(O)c1ccc(Cl)cc1Cl)n1cncn1 (stereo not drawn)
2,145 to 147,Fc1ccccc1NC(=S)Nc1ncccc1OCc1c(F)cccc1Cl
3,46 to 49,Cc1cc(C)cc(COC[C@@H](NC(=O)OC(C)(C)C)c2ccccc2)c1
4,183 to 186,CCOCc1nc2c(N)nc3ccccc3c2n1CCOCCNC(=O)Nc1ccccc1
5,99 to 101,CC(C)C[C@H](NC(=O)c1cccc2c1Nc1ccccc1S2)C(=O)N[C@H]1CCOC1O (stereo partly drawn)
6,168 to 171,CCOC(=O)c1cn(C)c2cc(Cl)sc2c1=O
7,63 to 66,Cc1cc(CNC(=O)c2sc(N3C[C@@H](C)N(Cc4cc(F)cc(F)c4)C3=O)nc2C)no1
8,93 to 95,Cc1cc(C(=O)NC/C=C\COc2ncccc2CN2CCCCC2)n[nH]1
9,197 to 200,COc1ccc(Nc2ncc3cc4ccccc4n3n2)cc1
10,67 to 69,Clc1ccc(Cc2cccnn2)c(Cl)c1
11,210 to 212,O=C(NCc1ccc([N+](=O)[O-])cc1)c1ccc2cccnc2c1O
12,129 to 130,CC(C)Cn1c(CN)c(-c2ccccc2)c2cc(Br)ccc2c1=O
13,108,C[C@H]1[C@H](c2ccccc2)N(C)C(=O)N1C(=O)NC1CCCCC1 (relative stereo)
14,148 to 150,COc1ccccc1C=CC(=O)C1=C(O)C(=C(C)Nc2ccccc2N)C(=O)OC1=O
15,238 to 239,CCCc1nc2ccccc2n1Cc1ccc(-c2ncccc2C(=O)O)cc1
16,48 to 50,C=C(C)Cn1c(=O)c2ccccc2n1C(=O)OCC
17,93 to 94,CCSc1cc(C)nc(SCC)c1NC(=O)CCCCCCCCSc1nc2c(C)c(Cl)cc(C(C)C)c2o1
18,88 to 90,CCc1n[nH]c(CCOc2ccc(S(C)(=O)=O)cc2)c1Oc1cc(C#N)cc(C#N)c1
19,88 to 91,CCOC(=O)/C=C/S(=O)(=O)c1ccc(C(C)(C)C)cc1
